Results on 16 compounds are retold here after ChEMBL document CHEMBL5104202, “Structure-Uptake Relationship Studies of Oxazolidinones in Gram-Negative ESKAPE Pathogens” (J Med Chem, 2022).

pIC50: −log10 of the molar value. A value given as a limit tells only on which side of the number the result lay.

What all share (assay type): functional, organism-based
Experiment [1] concerns Pseudomonas aeruginosa. Put plainly: Antibacterial activity against wild type Pseudomonas aeruginosa assessed as inhibition of bacterial growth.
In experiment [2] the test system is Acinetobacter baumannii. Nature of the experiment: Antibacterial activity against recombinant OM pore producing Acinetobacter baumannii assessed as inhibition of bacterial growth.
Experiment [3] concerns Escherichia coli. Nature of the experiment: Antibacterial activity against efflux pump lacking/recombinant OM pore producing Escherichia coli assessed as inhibition of bacterial growth.
In experiment [4] the test system is Acinetobacter baumannii. Put plainly: Antibacterial activity against efflux pump lacking Acinetobacter baumannii assessed as inhibition of bacterial growth.
The test system of experiment [5] is Pseudomonas aeruginosa. Put plainly: Antibacterial activity against efflux pump lacking Pseudomonas aeruginosa assessed as inhibition of bacterial growth.
Experiment [6] concerns Acinetobacter baumannii. Nature of the experiment: Antibacterial activity against efflux pump lacking/recombinant OM pore producing Acinetobacter baumannii assessed as inhibition of bacterial growth.
The test system of experiment [7] is Escherichia coli. Put plainly: Antibacterial activity against wild type Escherichia coli assessed as inhibition of bacterial growth.
Experiment [8] relates to Pseudomonas aeruginosa. Nature of the experiment: Antibacterial activity against efflux pump lacking/recombinant OM pore producing Pseudomonas aeruginosa assessed as inhibition of bacterial growth.
Experiment [9] deals with Pseudomonas aeruginosa. Nature of the experiment: Antibacterial activity against recombinant OM pore producing Pseudomonas aeruginosa assessed as inhibition of bacterial growth.
For experiment [10], the system named is Acinetobacter baumannii. Nature of the experiment: Antibacterial activity against wild type Acinetobacter baumannii assessed as inhibition of bacterial growth.
The subject of experiment [11] is Escherichia coli. Put plainly: Antibacterial activity against recombinant OM pore producing Escherichia coli assessed as inhibition of bacterial growth.
The test system of experiment [12] is Escherichia coli. Nature of the experiment: Antibacterial activity against efflux pump lacking Escherichia coli assessed as inhibition of bacterial growth.

For orientation: pIC50 means the negative decadic logarithm of the IC50, by convention in mol/L. Turning to `CC(C(=O)NCC#Cc1ccc(N2C[C@H](CO)OC2=O)cc1F)N1CCN(C(=O)OC(C)(C)C)CC1` (some centres not stated), the pIC50 with Pseudomonas aeruginosa [1] was below 4.00; in the experiment with Acinetobacter baumannii [2], below 4.00; with Escherichia coli [3], 4.20; in the experiment with Acinetobacter baumannii [4], below 4.00; with Pseudomonas aeruginosa [5] it was below 4.00; in the experiment on Acinetobacter baumannii [6], below 4.00. Also, the pIC50 was below 4.00 in the experiment on Escherichia coli [7]; below 4.00 in the experiment with Pseudomonas aeruginosa [8]; below 4.00 in the experiment with Pseudomonas aeruginosa [9]; below 4.00 with Acinetobacter baumannii [10]; below 4.00 in the experiment with Escherichia coli [11]; 4.29 in the experiment on Escherichia coli [12].

On to `O=C1O[C@@H](CO)CN1c1ccc(-c2ccc(-c3ccccn3)cc2)c(F)c1`, for which the negative logarithm of the IC50 (pIC50) is below 4.00 in the experiment on Pseudomonas aeruginosa [1]; 4.45 in the experiment with Acinetobacter baumannii [2]; 4.26 in the experiment with Escherichia coli [3]; 4.67 with Acinetobacter baumannii [4]; below 4.00 in the experiment with Pseudomonas aeruginosa [5]; 4.67 in the experiment on Acinetobacter baumannii [6]. The pIC50 in the experiment with Escherichia coli [7] was 4.12; in the experiment with Pseudomonas aeruginosa [8], below 4.00; with Pseudomonas aeruginosa [9] it was below 4.00; in the experiment on Acinetobacter baumannii [10], 4.45; in the experiment with Escherichia coli [11], 4.33; in the experiment on Escherichia coli [12], 4.25.

With `CCOC(=O)C1CCN(CC#Cc2ccc(N3C[C@H](CO)OC3=O)cc2F)CC1`, the pIC50 with Pseudomonas aeruginosa [1], in the experiment on Acinetobacter baumannii [2], in the experiment on Escherichia coli [3], in the experiment with Acinetobacter baumannii [4], in the experiment with Pseudomonas aeruginosa [5] and with Acinetobacter baumannii [6] was below 4.00 throughout. The pIC50 in the experiment on Escherichia coli [7], with Pseudomonas aeruginosa [8], with Pseudomonas aeruginosa [9], with Acinetobacter baumannii [10], in the experiment on Escherichia coli [11] and with Escherichia coli [12] was below 4.00 throughout.

As to `CC(C)c1ccc(-c2ccc(N3C[C@H](CO)OC3=O)cc2F)c(C(C)C)c1`, the pIC50 with Pseudomonas aeruginosa [1] is below 4.00; in the experiment with Acinetobacter baumannii [2], 4.11; in the experiment on Escherichia coli [3], 5.18; in the experiment with Acinetobacter baumannii [4], 4.76; in the experiment with Pseudomonas aeruginosa [5], 4.31; in the experiment on Acinetobacter baumannii [6], 5.09. In addition, the pIC50 in the experiment with Escherichia coli [7] was 4.00; in the experiment on Pseudomonas aeruginosa [8], 4.65; in the experiment on Pseudomonas aeruginosa [9] it was below 4.00; with Acinetobacter baumannii [10], below 4.00; with Escherichia coli [11] it was 4.69; in the experiment with Escherichia coli [12] it was 4.80.

On to `O=C(O)c1cncc(-c2ccc(N3C[C@H](CO)OC3=O)cc2F)c1`, for which the pIC50 with Pseudomonas aeruginosa [1] is below 4.00; with Acinetobacter baumannii [2], below 4.00; in the experiment on Escherichia coli [3] it was 4.37; with Acinetobacter baumannii [4] it was below 4.00; in the experiment on Pseudomonas aeruginosa [5], below 4.00; in the experiment on Acinetobacter baumannii [6], below 4.00. Also, the pIC50 with Escherichia coli [7], with Pseudomonas aeruginosa [8], in the experiment with Pseudomonas aeruginosa [9], in the experiment with Acinetobacter baumannii [10], in the experiment with Escherichia coli [11] and with Escherichia coli [12] was below 4.00 in each case.

Turning to `O=C1O[C@@H](CO)CN1c1ccc(-c2ccc(O)cc2)c(F)c1`, the pIC50 was below 4.00 with Pseudomonas aeruginosa [1]; 4.89 in the experiment with Acinetobacter baumannii [2]; 5.64 in the experiment on Escherichia coli [3]; 5.08 in the experiment with Acinetobacter baumannii [4]; 5.08 with Pseudomonas aeruginosa [5]; 5.14 in the experiment with Acinetobacter baumannii [6]. The pIC50 in the experiment with Escherichia coli [7] was below 4.00; in the experiment with Pseudomonas aeruginosa [8] it was 5.24; in the experiment with Pseudomonas aeruginosa [9], 4.56; in the experiment with Acinetobacter baumannii [10], below 4.00; in the experiment with Escherichia coli [11], 4.66; in the experiment on Escherichia coli [12], 5.70.

In the case of `N=C(N)NCc1ccc(-c2ccc(N3C[C@H](CO)OC3=O)cc2F)cc1`, the pIC50 is below 4.00 in the experiment on Pseudomonas aeruginosa [1]; 4.18 with Acinetobacter baumannii [2]; 4.25 in the experiment with Escherichia coli [3]; 4.17 in the experiment on Acinetobacter baumannii [4]; 4.92 with Pseudomonas aeruginosa [5]; 4.49 in the experiment on Acinetobacter baumannii [6]. Further, the pIC50 with Escherichia coli [7] was below 4.00; in the experiment on Pseudomonas aeruginosa [8], 4.59; with Pseudomonas aeruginosa [9], below 4.00; in the experiment on Acinetobacter baumannii [10] it was below 4.00; in the experiment on Escherichia coli [11] it was 4.25; in the experiment with Escherichia coli [12] it was 4.20.

Take `Cc1ccc(-c2ccc(N3C[C@H](CO)OC3=O)cc2F)cc1`: the pIC50 is below 4.00 in the experiment with Pseudomonas aeruginosa [1]; below 4.00 in the experiment with Acinetobacter baumannii [2]; 6.52 in the experiment on Escherichia coli [3]; 5.64 in the experiment with Acinetobacter baumannii [4]; 5.64 with Pseudomonas aeruginosa [5]; 5.80 in the experiment with Acinetobacter baumannii [6]. The pIC50 with Escherichia coli [7] was 4.55; in the experiment with Pseudomonas aeruginosa [8] it was 5.42; in the experiment with Pseudomonas aeruginosa [9] it was below 4.00; with Acinetobacter baumannii [10] it was below 4.00; in the experiment on Escherichia coli [11], 5.49; in the experiment with Escherichia coli [12], 6.52.

Regarding `O=C(O)CCCC#Cc1ccc(N2C[C@H](CO)OC2=O)cc1F`, the pIC50 in the experiment on Pseudomonas aeruginosa [1], in the experiment with Acinetobacter baumannii [2], in the experiment with Escherichia coli [3], with Acinetobacter baumannii [4], in the experiment with Pseudomonas aeruginosa [5] and in the experiment on Acinetobacter baumannii [6] was below 4.00 in each case. Also, the pIC50 in the experiment on Escherichia coli [7], with Pseudomonas aeruginosa [8], with Pseudomonas aeruginosa [9], with Acinetobacter baumannii [10], with Escherichia coli [11] and with Escherichia coli [12] was below 4.00 in each case.

For `Cn1ncc(C#Cc2ccc(N3C[C@H](CO)OC3=O)cc2F)c1C(=O)O`, the pIC50 is below 4.00 in the experiment on Pseudomonas aeruginosa [1]; 4.21 in the experiment on Acinetobacter baumannii [2]; below 4.00 with Escherichia coli [3]; 4.05 in the experiment on Acinetobacter baumannii [4]; below 4.00 in the experiment on Pseudomonas aeruginosa [5]; 4.05 in the experiment with Acinetobacter baumannii [6]. Moreover, the pIC50 in the experiment with Escherichia coli [7], in the experiment with Pseudomonas aeruginosa [8], with Pseudomonas aeruginosa [9], in the experiment on Acinetobacter baumannii [10], in the experiment with Escherichia coli [11] and in the experiment on Escherichia coli [12] was below 4.00 throughout.

For `CC(C)[n+]1ccc(-c2ccc(N3C[C@H](CO)OC3=O)cc2F)cc1`, the pIC50 with Pseudomonas aeruginosa [1] was below 4.00; in the experiment on Acinetobacter baumannii [2], 4.66; with Escherichia coli [3] it was 4.78; in the experiment with Acinetobacter baumannii [4] it was 4.46; with Pseudomonas aeruginosa [5], 4.45; with Acinetobacter baumannii [6], 4.65. Moreover, the pIC50 is 4.09 in the experiment on Escherichia coli [7]; 4.44 with Pseudomonas aeruginosa [8]; below 4.00 in the experiment with Pseudomonas aeruginosa [9]; 4.05 with Acinetobacter baumannii [10]; 4.37 in the experiment on Escherichia coli [11]; 4.77 in the experiment with Escherichia coli [12].

Take `COC(=O)c1ccccc1-c1ccc(N2C[C@H](CO)OC2=O)cc1F`: the negative-log IC50 (pIC50) in the experiment with Pseudomonas aeruginosa [1] was below 4.00; in the experiment with Acinetobacter baumannii [2] it was below 4.00; in the experiment with Escherichia coli [3] it was 4.40; with Acinetobacter baumannii [4] it was below 4.00; in the experiment with Pseudomonas aeruginosa [5], below 4.00; with Acinetobacter baumannii [6] it was below 4.00. In addition, the pIC50 with Escherichia coli [7] is 4.02; with Pseudomonas aeruginosa [8] it was below 4.00; in the experiment with Pseudomonas aeruginosa [9], below 4.00; in the experiment on Acinetobacter baumannii [10], below 4.00; in the experiment with Escherichia coli [11], 4.21; with Escherichia coli [12], 4.19.

In the case of `COC(=O)c1cncc(-c2ccc(N3C[C@H](CO)OC3=O)cc2F)c1`, the negative logarithm of the IC50 (pIC50) with Pseudomonas aeruginosa [1] is below 4.00; in the experiment with Acinetobacter baumannii [2] it was 4.08; with Escherichia coli [3] it was 5.66; in the experiment on Acinetobacter baumannii [4], 4.92; in the experiment on Pseudomonas aeruginosa [5], 4.48; in the experiment with Acinetobacter baumannii [6], 4.92. The pIC50 with Escherichia coli [7] is below 4.00; in the experiment on Pseudomonas aeruginosa [8], 4.41; in the experiment on Pseudomonas aeruginosa [9] it was below 4.00; with Acinetobacter baumannii [10], 4.08; in the experiment on Escherichia coli [11], 5.33; in the experiment with Escherichia coli [12], 5.57.

`COc1ccc(-c2ccc(N3C[C@H](CO)OC3=O)cc2F)cc1`: the pIC50 in the experiment on Pseudomonas aeruginosa [1] was below 4.00; with Acinetobacter baumannii [2], below 4.00; in the experiment on Escherichia coli [3], 6.52; in the experiment with Acinetobacter baumannii [4], 6.15; with Pseudomonas aeruginosa [5], 6.15; in the experiment on Acinetobacter baumannii [6] it was 6.22. Moreover, the pIC50 was 4.63 in the experiment with Escherichia coli [7]; 5.92 in the experiment with Pseudomonas aeruginosa [8]; below 4.00 with Pseudomonas aeruginosa [9]; below 4.00 in the experiment on Acinetobacter baumannii [10]; 5.47 with Escherichia coli [11]; 6.70 in the experiment on Escherichia coli [12].

Take `COCC#Cc1ccc(N2C[C@H](CO)OC2=O)cc1F`: the pIC50 in the experiment on Pseudomonas aeruginosa [1] is below 4.00; in the experiment on Acinetobacter baumannii [2], below 4.00; in the experiment on Escherichia coli [3] it was 4.36; in the experiment with Acinetobacter baumannii [4] it was below 4.00; in the experiment on Pseudomonas aeruginosa [5], below 4.00; in the experiment on Acinetobacter baumannii [6] it was below 4.00. For the same compound, the negative-log IC50 (pIC50) is 4.13 in the experiment on Escherichia coli [7]; below 4.00 in the experiment with Pseudomonas aeruginosa [8]; below 4.00 in the experiment on Pseudomonas aeruginosa [9]; below 4.00 with Acinetobacter baumannii [10]; 4.44 in the experiment with Escherichia coli [11]; 4.10 in the experiment on Escherichia coli [12].

For the compound `O=C1O[C@@H](CO)CN1c1ccc(-c2cnoc2)c(F)c1`, the pIC50 in the experiment with Pseudomonas aeruginosa [1] is below 4.00; with Acinetobacter baumannii [2] it was below 4.00; with Escherichia coli [3], 4.51; in the experiment with Acinetobacter baumannii [4], 4.08; with Pseudomonas aeruginosa [5], 4.64; in the experiment with Acinetobacter baumannii [6], 4.08. In addition, the pIC50 is below 4.00 in the experiment with Escherichia coli [7]; 4.48 in the experiment on Pseudomonas aeruginosa [8]; below 4.00 in the experiment with Pseudomonas aeruginosa [9]; below 4.00 with Acinetobacter baumannii [10]; 4.25 in the experiment with Escherichia coli [11]; 4.63 with Escherichia coli [12].
